{
  "source": "paper PMC8746705",
  "about": "“Comparison of Experimental Strategies to Study L-Type Amino Acid Transporter 1 (LAT1) Utilization by Ligands” (Molecules, 2021)",
  "test": "Liver lysosomal accumulation after i.p. dose to mice",
  "type": "in vivo",
  "settings": "mouse liver; parent drug of the named prodrug",
  "experimental": "Adult male mice weighing 25 ± 5 g were supplied by Envigo (Venray, Netherlands). Mice were housed in stainless steel cages on a 12 h light (07:00–19:00) and 12 h dark (19:00–07:00) cycle at an ambient temperature of 22 ± 1 °C with a relative humidity of 50–60%. All experiments were carried out during the light phase. Tap water and food pellets (Lactamin R36; Lactamin AB, Södertälje, Sweden) were available ad libitum. A dose of 25 µmol/kg of compound 1, 2, or 8–11 was given as a bolus injection (i.p.) to mice. The mice were decapitated at selected time points between (10–360 min) and brain tissues were collected for sample preparation to be analyzed by liquid chromatography-mass spectrometric (LC-MS/MS) analysis.\nThe liver lysosomal samples (10–120 min; tmax) were prepared by homogenizing the pre-weigh tissues with ice-cold 0.25 M sucrose (1:3). […] Samples were vortexed and centrifuged at 10,000× g at 4 °C for 10 min and injected to LC-MS/MS to quantify the total drug amount in tissue as a control to lysosomal samples. […] The concentration of compounds in the crude lysosomal fractions were then analyzed with LC-MS/MS. Both the total liver tissue accumulation as well as the lysosomal fraction (including the possibly released parent drugs) were calculated from the standard curve that was prepared by spiking known amounts of compounds to ACN, including the selected internal standard. […]",
  "data": [
    {"smiles": "C[C@H](C(=O)Nc1cccc(C[C@H](N)C(=O)O)c1)c1cccc(C(=O)c2ccccc2)c1", "note": "[Compound 2]", "values": [
      {"measurement": "Accumulation of parent drug (dosed as such) into crude lysosomal fraction, of total liver tissue accumulation", "value": "no parent drug was detected"}
    ]}
  ]
}
